Holding throughout (experiment): ATP formation, hexokinase/G6PDH end-point assay
Common to all, as to type: biochemical
Holding throughout (settings): 2.5 mM ADP, 2 mM MgCl2, 100 mM KCl, HEPES pH 7.4, 5-65 °C

Assay [1] concerns the target T1, AKm (Bacillus subtilis, UniProt P16304).
T1 construct: gene adk; full length (residues 1-217), pET11a, E. coli BL21 (DE3); Affi-Gel blue and size exclusion, no tag mentioned

The target in assay [2] is T2, AKp (Sporosarcina globispora, UniProt P84139).
T2 construct: gene adk; full length (residues 1-217), pET30a, E. coli BL21 (DE3); Affi-Gel blue and size exclusion, no tag mentioned
T2 sequence (P84139 whole entry, the tested form may be a part): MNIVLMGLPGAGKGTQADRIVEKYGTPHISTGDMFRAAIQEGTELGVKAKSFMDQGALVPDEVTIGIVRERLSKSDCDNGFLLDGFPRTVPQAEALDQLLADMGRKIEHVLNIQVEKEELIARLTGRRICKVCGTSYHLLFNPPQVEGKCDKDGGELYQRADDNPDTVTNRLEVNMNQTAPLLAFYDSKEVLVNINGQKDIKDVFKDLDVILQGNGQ

Assay [3] addresses T3, AKm (Bacillus subtilis, UniProt P16304, I26T).
T3 construct: gene adk; full length (residues 1-217), pET11a, E. coli BL21 (DE3); Affi-Gel blue and size exclusion, no tag mentioned

The target of assay [4] is T4, AKp (Sporosarcina globispora, UniProt P84139, T26I).
T4 construct: gene adk; full length (residues 1-217), pET30a, E. coli BL21 (DE3); Affi-Gel blue and size exclusion, no tag mentioned
T4 sequence (P84139 whole entry T26I, the tested form may be a part): as the sequence (P84139 whole entry, the tested form may be a part) above, with T26I counted along it

Here are results for one compound from publication PMC6498869, “Structural and mutational analyses of psychrophilic and mesophilic adenylate kinases highlight the role of hydrophobic interactions in protein thermal stability” (Structural Dynamics, 2019).

T3 sequence (P16304 whole entry I26T, the tested form may be a part): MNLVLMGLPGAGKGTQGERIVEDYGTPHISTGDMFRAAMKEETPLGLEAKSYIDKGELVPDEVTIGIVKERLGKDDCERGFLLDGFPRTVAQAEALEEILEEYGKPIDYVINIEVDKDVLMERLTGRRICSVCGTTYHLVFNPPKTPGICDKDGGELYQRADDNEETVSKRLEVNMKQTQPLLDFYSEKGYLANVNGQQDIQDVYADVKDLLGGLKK
T1 sequence (P16304 whole entry, the tested form may be a part): as the sequence (P16304 whole entry I26T, the tested form may be a part) above, with T26I counted along it

Regarding `Nc1ncnc2c1ncn2[C@@H]1O[C@H](COP(=O)(O)OP(=O)(O)O)[C@@H](O)[C@H]1O` [ADP], the “ATP formation, hexokinase/G6PDH end-point assay” value was “The activity assays of WT AKm and the I26T mutant also showed consistent results” at AKm [1]; “we determined the temperature dependence of the activities of WT AKp and its T26I mutant” at AKp [2]; “The activity assays of WT AKm and the I26T mutant also showed consistent results” at AKm [3]; “we determined the temperature dependence of the activities of WT AKp and its T26I mutant” on AKp [4].
